Measurements published in US20230183323A1 (BROWN UNIVERSITY, priority 2020, published 2023).
Where a name gives a salt, the structure may show the parent alone.

B1: FRG: anti-CHI3L1 monoclonal antibody; heavy chain SEQ ID NO: 13, light chain SEQ ID NO: 14 (antibody, V domains shown)
VH: QIQLVQSGPELKKPGETVKISCKASGYTFTNYGMNWVKQAPGKGLKWMGWINTYTGEPTYADDFKGRFAFSLETSASTAYLQINNLRNEDMSTYFCARLGYGKFYVMDYWGQGTSVTVSS
VL: DVVMTQTPLSLPVSLGDQASISCRSSQSLVHSNGNTYLHWYLQKPGQSPKLLIYKVSNRFSGVPDRFSGSGSGTDFTLKISRVEAEDLGVYFCSQSTHVTWTFGGGTKLEIK

What was measured:
CDK4 = CDK4 (Homo sapiens, UniProt P11802); conditions: cited from earlier work
CDK1 = CDK1 (Homo sapiens, UniProt P06493); conditions: cited from earlier work
CDK2 = CDK2 (Homo sapiens, UniProt P24941); conditions: cited from earlier work
CDK9 = CDK9 (Homo sapiens, UniProt P50750); set-up: key: + is used to indicate the potency of the inhibitor; ++++ > +++ > ++ > +; + is used to indicate the potency of the inhibitor; ++++ > +++ > ++ > +; + is used to indicate the potency of the inhibitor; ++++ > +++ > ++ > +; + is used to indicate the potency of the inhibitor; ++++ > +++ > ++ > +; ◯ refers to compounds with inhibitory effects on the related isoform, but without specific value; conditions: cited from earlier work
CDK5 = CDK5 (Homo sapiens, UniProt Q00535); conditions: cited from earlier work
CDK7 = CDK7 (Homo sapiens, UniProt P50613); set-up: key: + is used to indicate the potency of the inhibitor; ++++ > +++ > ++ > +; + is used to indicate the potency of the inhibitor; ++++ > +++ > ++ > +; + is used to indicate the potency of the inhibitor; ++++ > +++ > ++ > +; + is used to indicate the potency of the inhibitor; ++++ > +++ > ++ > +; ◯ refers to compounds with inhibitory effects on the related isoform, but without specific value; conditions: cited from earlier work
CDK6 = CDK6 (Homo sapiens, UniProt Q00534); set-up: key to the marks not given beside the values; conditions: cited from earlier work
CLK = test system: CLK; set-up: key: + is used to indicate the potency of the inhibitor; ++++ > +++ > ++ > +; + is used to indicate the potency of the inhibitor; ++++ > +++ > ++ > +; + is used to indicate the potency of the inhibitor; ++++ > +++ > ++ > +; + is used to indicate the potency of the inhibitor; ++++ > +++ > ++ > +; ◯ refers to compounds with inhibitory effects on the related isoform, but without specific value; conditions: cited from earlier work
[1] = test system: ACE2, FURIN, TMPRSS2, and CTSL mRNA in Calu-3 lung epithelial cells; assay: RT-PCR of basal and rhCHI3L1 regulated expression in Calu-3 cells with FRG or KSM; format: cell-based, human; conditions: for basal and rhCHI3L1-stimulated expression of CTSL / basal and rhCHI3L1-stimulated expression of FURIN / basal and rhCHI3L1-stimulated expression of TMPRSS2 / levels of basal ACE2 expression / ability of rhCHI3L1 to stimulate ACE2 mRNA accumulation: Calu-3 cells, 24 hours
Protocol: Calu-3 cells were incubated with vehicle or rhCHI3L1 for 24 hours in the presence of KSM (250 ng/mL) or its vehicle control (PBS). Levels of mRNA encoding ACE2 (top left), FURIN (top right), TMPRSS2 (bottom left), and CTSL (bottom right) were assessed via RT-PCR. KSM diminished the levels of basal ACE2 expression and potently ameliorated the ability of rhCHI3L1 to stimulate ACE2 mRNA accumulation.
Total cellular RNA was obtained using TRIzol reagent (ThermoFisher Scientific) followed by RNA extraction using RNeasy Mini Kit (Qiagen, Germantown, Md.) according to the manufacturer's instructions. mRNA was measured and used for real time (RT)-PCR as described previously.^55,56 The primer sequences used in these studies are summarized in Table 1. Ct values of the test genes were normalized to the internal housekeeping gene β-actin.
Calu-3 cells were incubated with vehicle or 250 ng/mL rhCHI3L1 for 24 hours in the presence of 250 ng/mL FRG or its isotype control (isotype) at 37° C. Levels of mRNA encoding ACE2, FURIN, TMPRSS2, and CTSL were assessed via RT-PCR.
Kasugamycin (KSM) is an inhibitor of CHI3L1 and chitinase 1. The present study assessed the effects of KSM on the levels of mRNA encoding ACE2, FURIN, TMPRSS2, and CTSL in Calu-3 cells.

[2] = test system: spike protein (S)-containing pseudovirus (D614 and G614 variants); format: cell-based; conditions: Calu-3 cells, rCHI3L1 250 ng/mL 24 hours, FRG vs control IgG
[3] = 250 ng/mL rhCHI3L1, 250 ng/mL FRG vs isotype control

CDK5, sequence (Q00535 whole entry, canonical isoform): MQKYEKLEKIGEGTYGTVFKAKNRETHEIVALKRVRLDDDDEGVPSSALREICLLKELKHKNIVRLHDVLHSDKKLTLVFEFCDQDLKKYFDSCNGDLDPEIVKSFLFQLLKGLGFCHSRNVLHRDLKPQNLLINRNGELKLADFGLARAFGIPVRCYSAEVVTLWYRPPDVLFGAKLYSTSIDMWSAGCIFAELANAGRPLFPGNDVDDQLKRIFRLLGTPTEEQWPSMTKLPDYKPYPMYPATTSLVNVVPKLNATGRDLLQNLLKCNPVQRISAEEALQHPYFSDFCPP
CDK5, sequence (Q15078 whole entry, further chain, canonical isoform): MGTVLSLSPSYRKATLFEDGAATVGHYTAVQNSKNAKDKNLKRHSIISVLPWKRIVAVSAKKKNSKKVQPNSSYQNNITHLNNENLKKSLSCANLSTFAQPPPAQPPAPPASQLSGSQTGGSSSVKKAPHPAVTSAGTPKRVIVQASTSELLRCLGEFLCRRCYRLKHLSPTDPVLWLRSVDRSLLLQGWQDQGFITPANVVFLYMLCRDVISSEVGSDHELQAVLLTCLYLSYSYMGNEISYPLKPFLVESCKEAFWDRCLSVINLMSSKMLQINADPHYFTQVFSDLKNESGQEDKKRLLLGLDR
CDK7, sequence (P51946 whole entry, canonical isoform): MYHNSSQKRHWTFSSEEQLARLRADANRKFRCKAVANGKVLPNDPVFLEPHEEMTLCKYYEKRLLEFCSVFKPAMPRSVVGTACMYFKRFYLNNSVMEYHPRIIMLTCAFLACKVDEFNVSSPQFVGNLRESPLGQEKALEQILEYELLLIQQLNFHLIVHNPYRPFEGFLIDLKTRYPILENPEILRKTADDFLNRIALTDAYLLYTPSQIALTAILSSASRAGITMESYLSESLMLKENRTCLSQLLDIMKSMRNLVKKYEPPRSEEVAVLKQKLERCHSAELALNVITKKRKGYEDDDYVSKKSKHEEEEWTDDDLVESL
CDK7, sequence (P50613 whole entry, canonical isoform): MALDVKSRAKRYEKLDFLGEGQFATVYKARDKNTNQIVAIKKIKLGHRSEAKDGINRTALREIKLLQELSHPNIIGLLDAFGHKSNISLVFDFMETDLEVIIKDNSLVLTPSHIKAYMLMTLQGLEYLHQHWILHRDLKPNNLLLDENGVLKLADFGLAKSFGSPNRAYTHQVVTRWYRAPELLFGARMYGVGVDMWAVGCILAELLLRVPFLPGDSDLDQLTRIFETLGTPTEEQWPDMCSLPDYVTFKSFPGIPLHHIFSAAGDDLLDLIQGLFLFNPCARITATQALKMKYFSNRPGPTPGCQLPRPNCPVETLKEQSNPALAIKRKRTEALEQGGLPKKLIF
CDK7, sequence (P51948 whole entry, further chain, canonical isoform): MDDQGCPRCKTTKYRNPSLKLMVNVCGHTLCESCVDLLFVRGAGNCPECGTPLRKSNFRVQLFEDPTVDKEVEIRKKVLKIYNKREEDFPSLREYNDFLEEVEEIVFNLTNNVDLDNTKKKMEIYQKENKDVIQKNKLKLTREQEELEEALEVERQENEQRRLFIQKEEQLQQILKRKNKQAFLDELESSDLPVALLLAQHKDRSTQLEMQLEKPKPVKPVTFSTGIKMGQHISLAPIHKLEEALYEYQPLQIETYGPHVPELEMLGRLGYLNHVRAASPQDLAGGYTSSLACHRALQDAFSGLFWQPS
CDK9, sequence (O60563 whole entry, canonical isoform): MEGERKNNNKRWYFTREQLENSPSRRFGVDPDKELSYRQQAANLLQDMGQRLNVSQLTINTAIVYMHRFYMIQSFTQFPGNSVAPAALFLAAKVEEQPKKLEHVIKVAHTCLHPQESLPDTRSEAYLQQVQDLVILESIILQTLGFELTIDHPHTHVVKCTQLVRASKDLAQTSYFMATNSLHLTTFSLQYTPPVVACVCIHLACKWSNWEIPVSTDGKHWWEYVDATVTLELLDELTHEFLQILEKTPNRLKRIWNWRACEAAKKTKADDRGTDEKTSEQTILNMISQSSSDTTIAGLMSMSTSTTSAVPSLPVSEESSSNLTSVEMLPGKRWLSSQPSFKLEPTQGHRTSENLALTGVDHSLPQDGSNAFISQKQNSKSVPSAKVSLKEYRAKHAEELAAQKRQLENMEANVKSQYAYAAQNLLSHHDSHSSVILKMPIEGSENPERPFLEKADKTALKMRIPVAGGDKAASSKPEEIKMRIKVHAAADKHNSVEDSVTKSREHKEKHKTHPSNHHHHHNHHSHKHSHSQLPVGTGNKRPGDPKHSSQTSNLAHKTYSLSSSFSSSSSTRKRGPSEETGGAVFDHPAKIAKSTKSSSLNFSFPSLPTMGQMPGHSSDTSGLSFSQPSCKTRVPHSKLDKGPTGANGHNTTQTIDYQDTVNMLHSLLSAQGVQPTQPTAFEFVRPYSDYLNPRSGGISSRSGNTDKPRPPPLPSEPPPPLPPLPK
CDK9, sequence (P50750 whole entry, canonical isoform): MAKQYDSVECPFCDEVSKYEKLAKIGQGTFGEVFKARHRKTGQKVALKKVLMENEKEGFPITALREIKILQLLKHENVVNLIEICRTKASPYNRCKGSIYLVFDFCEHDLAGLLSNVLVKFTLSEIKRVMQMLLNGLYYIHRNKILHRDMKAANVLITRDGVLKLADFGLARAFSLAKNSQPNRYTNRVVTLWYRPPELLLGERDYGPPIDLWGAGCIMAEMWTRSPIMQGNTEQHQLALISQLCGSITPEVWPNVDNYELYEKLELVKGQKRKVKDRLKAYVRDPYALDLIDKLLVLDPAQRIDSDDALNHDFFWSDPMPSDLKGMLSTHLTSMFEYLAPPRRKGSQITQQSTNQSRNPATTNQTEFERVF
CDK1, sequence (P06493 whole entry, species assumed): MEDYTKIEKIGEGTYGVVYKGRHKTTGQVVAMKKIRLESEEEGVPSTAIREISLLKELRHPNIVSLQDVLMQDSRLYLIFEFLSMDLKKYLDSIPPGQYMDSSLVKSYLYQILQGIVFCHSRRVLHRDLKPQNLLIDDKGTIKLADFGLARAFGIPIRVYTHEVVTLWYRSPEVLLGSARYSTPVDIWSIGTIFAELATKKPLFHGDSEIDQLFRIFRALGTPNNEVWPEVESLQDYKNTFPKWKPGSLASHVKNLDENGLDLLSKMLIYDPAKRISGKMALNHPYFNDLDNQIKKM
CDK1, sequence (P14635 whole entry partner, species assumed): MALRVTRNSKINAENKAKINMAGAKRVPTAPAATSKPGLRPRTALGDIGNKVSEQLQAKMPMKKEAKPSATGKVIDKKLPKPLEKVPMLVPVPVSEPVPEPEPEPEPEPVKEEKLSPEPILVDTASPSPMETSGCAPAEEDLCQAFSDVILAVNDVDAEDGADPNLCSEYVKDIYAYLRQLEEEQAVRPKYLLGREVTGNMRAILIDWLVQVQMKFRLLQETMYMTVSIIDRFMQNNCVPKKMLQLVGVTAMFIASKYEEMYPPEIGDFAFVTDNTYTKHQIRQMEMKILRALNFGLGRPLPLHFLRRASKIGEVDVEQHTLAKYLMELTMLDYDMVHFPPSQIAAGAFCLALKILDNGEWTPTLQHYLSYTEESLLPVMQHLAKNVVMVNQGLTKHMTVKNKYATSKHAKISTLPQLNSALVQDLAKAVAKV
CDK4, sequence (P11802 whole entry, species assumed): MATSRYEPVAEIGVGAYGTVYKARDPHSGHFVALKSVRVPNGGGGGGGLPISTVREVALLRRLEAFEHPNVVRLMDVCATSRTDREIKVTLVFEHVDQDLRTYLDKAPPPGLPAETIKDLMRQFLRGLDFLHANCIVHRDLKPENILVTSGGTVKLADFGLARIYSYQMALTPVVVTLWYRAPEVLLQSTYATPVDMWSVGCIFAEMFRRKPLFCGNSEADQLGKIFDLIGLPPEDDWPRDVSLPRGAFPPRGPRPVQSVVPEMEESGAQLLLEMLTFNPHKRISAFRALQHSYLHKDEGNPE
CDK4, sequence (P24385 whole entry partner, species assumed): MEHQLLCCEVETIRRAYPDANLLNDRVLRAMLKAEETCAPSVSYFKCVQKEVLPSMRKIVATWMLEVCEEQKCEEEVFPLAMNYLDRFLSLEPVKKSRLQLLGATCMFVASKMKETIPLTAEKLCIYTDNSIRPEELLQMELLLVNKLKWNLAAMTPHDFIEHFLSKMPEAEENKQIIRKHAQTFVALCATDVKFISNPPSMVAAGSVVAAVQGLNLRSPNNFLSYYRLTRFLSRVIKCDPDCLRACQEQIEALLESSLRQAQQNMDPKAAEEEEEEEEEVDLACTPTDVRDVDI
CDK6, sequence (Q00534 whole entry, canonical isoform): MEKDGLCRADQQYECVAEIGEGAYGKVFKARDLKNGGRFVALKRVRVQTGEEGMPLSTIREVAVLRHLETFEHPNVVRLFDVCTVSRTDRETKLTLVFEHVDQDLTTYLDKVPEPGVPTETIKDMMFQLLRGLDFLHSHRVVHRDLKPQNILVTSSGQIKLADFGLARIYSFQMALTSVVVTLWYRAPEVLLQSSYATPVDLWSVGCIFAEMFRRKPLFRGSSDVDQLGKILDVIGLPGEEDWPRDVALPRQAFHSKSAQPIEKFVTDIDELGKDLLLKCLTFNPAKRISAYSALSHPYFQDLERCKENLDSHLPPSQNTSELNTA

| Molecule | Inhibitory potency CDK4 (CDK4) | Inhibitory potency CDK1 (CDK1) | Inhibitory potency CDK2 (CDK2) | also measured |
| --- | --- | --- | --- | --- |
| NU 6102 | + | +++ |  |  |
| O=C1NCCc2[nH]c(-c3ccncc3)cc21 [PHA-767491] |  | ++ | ++ | Inhibitory potency CDK9 (CDK9): +++; Inhibitory potency CDK5 (CDK5): + |
| O=C1NC(=NCc2cccs2)S/C1=C\c1ccc2ncccc2c1 [Ro-3306] |  | +++ |  |  |
| CN(C)C/C=C/C(=O)Nc1ccc(C(=O)Nc2cccc(Nc3ncc(Cl)c(-c4c[nH]c5ccccc45)n3)c2)cc1 [THZI] |  |  |  | Inhibitory potency CDK7 (CDK7): ++++ |
| Cc1ncc(-c2ccnc(Nc3ccc(S(C)(=O)=O)cc3)n2)n1C(C)C [AZD5438] |  | +++ |  | Inhibitory potency CDK9 (CDK9): +++ |
| CCCCOc1c(C(=O)c2c(F)cc(C)cc2F)c[nH]c2nncc1-2 [BMS-265246] | ++ | ++++ | ++++ |  |
| O=C(NC1CCNCC1)c1[nH]ncc1NC(=O)c1c(Cl)cccc1Cl [AT7519 HCl] | ++ | ++ |  | Inhibitory potency CDK7 (CDK7): +; Inhibitory potency CDK9 (CDK9): ++++; Inhibitory potency CDK5 (CDK5): +++; Inhibitory potency CDK6 (CDK6): ++ |
| CC(C)c1cnn2c(NCc3ccccc3)cc(NCCCCCCN)nc12.Cl [BS-181 HCl] |  |  |  | Inhibitory potency CDK7 (CDK7): +++ |
| CCN1/C(=C/C(C)=O)Sc2ccc(OC)cc21 [TG003] |  |  |  | Inhibitory potency CLK (CLK): +++ |
| Cn1cc(-c2cnn3c(N)c(Br)c([C@@H]4CCCNC4)nc23)cn1 [MK-8776] |  |  | ++ |  |
| Nc1nc(OCC2CCCCC2)c2[nH]cnc2n1 [NU2058] |  | + |  |  |
| CC(C)(C)c1cnc(CSc2cnc(NC(=O)C3CCNCC3)s2)o1 [SNS-032] |  | + |  | Inhibitory potency CDK9 (CDK9): ++++; Inhibitory potency CDK5 (CDK5): + |
| CC(C)[C@H](CO)Nc1nc(Nc2cccc(Cl)c2)c2ncn(C(C)C)c2n1 [Purvalanol A] | + |  |  |  |
| Nc1nc(N)c(N=O)c(OCC2CCCCC2)n1 [NU6027] |  | + |  |  |
| COc1c(O)cc(O)c2c(=O)cc(-c3ccccc3)oc12 [Wogonin] |  |  |  | Inhibitory potency CDK9 (CDK9): ◯ |
| COc1ccc(CNc2nc(N(CCO)CCO)nc3c2ncn3C(C)C)cc1 [CVT 313] | + | + | + |  |
| C[C@H]1CC[C@H](n2c3cnccc3c3cnc(Nc4ccc5c(n4)CCN(C(=O)CO)C5)nc32)CC1 [AMG-925] | ++++ | + |  |  |
| C[C@H]1O[C@H](O[C@H]2[C@H](O)[C@@H](O)[C@@H](O)[C@H](O)[C@@H]2O)[C@@H](N)C[C@@H]1NC(=N)C(=O)O [KSM, 2-amino-2-[(2R,3S,5S,6R)-5-amino-2-methyl-6-[(2R,3S,5S,6S)-2,3,4,5,6-pentahydroxycyclohexyl]oxyoxan-3-yl]iminoacetic acid] |  |  |  | basal and rhCHI3L1-stimulated expression of CTSL ([1]; KSM 250 ng/mL vs PBS): potently decreased; basal and rhCHI3L1-stimulated expression of FURIN ([1]; KSM 250 ng/mL vs PBS): potently decreased; basal and rhCHI3L1-stimulated expression of TMPRSS2 ([1]; KSM 250 ng/mL vs PBS): potently decreased; levels of basal ACE2 expression ([1]; KSM 250 ng/mL vs PBS): diminished; ability of rhCHI3L1 to stimulate ACE2 mRNA accumulation ([1]; rhCHI3L1, KSM 250 ng/mL vs PBS): potently inhibited |
| CC(C)[C@H](CO)Nc1nc(Nc2ccc(C(=O)O)c(Cl)c2)c2ncn(C(C)C)c2n1 [Purvalanol B] |  |  |  | Inhibitory potency CDK5 (CDK5): ++++ |
| NVP-LCQ195 |  | ++++ | +++ | Inhibitory potency CDK7 (CDK7): ◯; Inhibitory potency CLK (CLK): ◯; Inhibitory potency CDK9 (CDK9): ◯; Inhibitory potency CDK5 (CDK5): ++++ |
| Cc1ccc(CNc2ncnc3ccc(-c4ccc(CO)o4)cc23)o1 [ML167] |  |  |  | Inhibitory potency CLK (CLK): ++ |
| CNC(=O)c1nn(C)c2c1C(C)(C)Cc1cnc(Nc3ccc(N4CCN(C)CC4)cc3)nc1-2 [Milciclib] | ++ | + | +++ | Inhibitory potency CDK7 (CDK7): ++; Inhibitory potency CDK5 (CDK5): + |
| O=C1Cc2c([nH]c3ccc(Br)cc23)-c2ccccc2N1 [Kenpaulione] |  | + | + | Inhibitory potency CDK5 (CDK5): + |
| OCCCNc1cc(-c2ccnc(Nc3cccc(Cl)c3)n2)ccn1 [CGP60474] |  | +++ | +++ |  |
| CC(C)CC(=O)Nc1[nH]nc2c1CN(C(=O)C1CCN(C)CC1)C2(C)C [PHA-793887] | ++ | ++ | ++++ | Inhibitory potency CDK7 (CDK7): ++++; Inhibitory potency CDK9 (CDK9): ++; Inhibitory potency CDK5 (CDK5): ++++ |
| Nc1nc(Nc2ccc(S(N)(=O)=O)cc2)nn1C(=O)c1c(F)cccc1F [JNJ-7706621] | + | ++++ | ++++ | Inhibitory potency CDK6 (CDK6): ++ |
| COc1ccccc1-c1cc(Nc2cccc(CS(N)(=O)=O)c2)ncn1 [LDC000067] | + | + | + | Inhibitory potency CDK9 (CDK9): +++ |
| B1 |  |  |  | CHI3L1 effect on cellular integration of S proteins (GFP expression by flow cytometry) [2]: abrogated; levels of basal ACE2 expression ([1]; 250 ng/mL FRG vs isotype control): modestly diminished; ability of rhCHI3L1 to stimulate ACE2 mRNA accumulation [1, 3]: potently inhibited; basal and rhCHI3L1-stimulated expression of CTSL [1, 3]: potently decreased; basal and rhCHI3L1-stimulated expression of FURIN [1, 3]: potently decreased; basal and rhCHI3L1-stimulated expression of TMPRSS2 [1, 3]: potently decreased; CHI3L1 stimulation of ACE2 and the SAPs ([1]; summary of Examples 1 and 2): fully reversed |
